What is called IC50 is the concentration that inhibits the measured activity by half. Higher therefore signals weaker potency in that assay.

For the assay, the target named is T1, A disintegrin and metalloproteinase with thrombospondin motifs 5 (Homo sapiens, UniProt Q9UNA0).
T1 sequence (Q9UNA0 whole entry): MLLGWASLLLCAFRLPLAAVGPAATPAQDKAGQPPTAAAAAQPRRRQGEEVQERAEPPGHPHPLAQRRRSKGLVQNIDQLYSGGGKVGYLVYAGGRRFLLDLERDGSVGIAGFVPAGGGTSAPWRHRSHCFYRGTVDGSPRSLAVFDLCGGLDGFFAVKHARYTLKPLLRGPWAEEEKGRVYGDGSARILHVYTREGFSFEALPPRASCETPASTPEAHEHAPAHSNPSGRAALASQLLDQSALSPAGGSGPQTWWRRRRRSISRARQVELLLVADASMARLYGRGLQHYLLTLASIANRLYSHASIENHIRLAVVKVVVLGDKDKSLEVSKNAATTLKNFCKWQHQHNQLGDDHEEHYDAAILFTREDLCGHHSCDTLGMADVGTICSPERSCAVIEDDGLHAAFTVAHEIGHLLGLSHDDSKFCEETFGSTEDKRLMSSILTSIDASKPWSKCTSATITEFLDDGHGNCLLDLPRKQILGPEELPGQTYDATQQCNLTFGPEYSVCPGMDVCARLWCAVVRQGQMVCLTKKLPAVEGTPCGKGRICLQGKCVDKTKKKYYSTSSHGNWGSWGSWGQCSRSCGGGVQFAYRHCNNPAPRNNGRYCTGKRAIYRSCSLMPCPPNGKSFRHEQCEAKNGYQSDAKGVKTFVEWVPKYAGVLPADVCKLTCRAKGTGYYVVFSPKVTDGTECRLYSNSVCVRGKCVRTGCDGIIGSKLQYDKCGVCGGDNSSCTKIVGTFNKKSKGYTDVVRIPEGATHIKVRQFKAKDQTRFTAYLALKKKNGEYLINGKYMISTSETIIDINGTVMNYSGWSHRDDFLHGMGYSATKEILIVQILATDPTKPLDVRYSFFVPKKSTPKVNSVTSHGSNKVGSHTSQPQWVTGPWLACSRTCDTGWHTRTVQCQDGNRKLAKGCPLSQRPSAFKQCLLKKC
As to the kind of experiment: Inhibition of ADAMTS5.
`O=C1/C(=C\c2ccc(OCc3ccccc3)c(OCc3ccccc3)c2)SC(=S)N1Cc1ccccc1`: the IC50 was above 67 µM. In turn, `O=C1NC(=S)S/C1=C/c1cccc(OCc2ccccc2)c1` had an IC50 of 20.1 µM. In other words, the double-digit micromolar range. The figure for `O=C1NC(=S)S/C1=C/c1ccc(OCc2ccccc2)c(OCc2ccccc2)c1` is 1.8 µM. Molecule `O=C1NC(=S)S/C1=C/c1cc(OCc2ccccc2)cc(OCc2ccccc2)c1` returned an IC50 of 1.4 µM.

Molecule `COc1cc(/C=C2/SC(=S)NC2=O)ccc1OCc1ccccc1` showed an IC50 above 22 µM. Turning to `COc1ccc(COc2ccc(/C=C3/SC(=S)NC3=O)cc2OC)cc1`, half-maximal inhibition (IC50) was put at 11.6 µM. Under `O=C1NC(=S)S/C1=C/c1cccc(Oc2ccccc2)c1` stands above 22 µM; under `O=C1NC(=S)S/C1=C/c1cccc(Oc2ccc(Cl)cc2)c1`, 4.9 µM.

`Cc1ccc(Oc2cccc(/C=C3/SC(=S)NC3=O)c2)cc1` registered a half-inhibitory concentration (IC50) of 14.8 µM.

In turn, `CC(C)(C)c1ccc(Oc2cccc(/C=C3/SC(=S)NC3=O)c2)cc1` displayed an IC50 of 1.7 µM. This IC50 is about 8.7-fold lower than that of the molecule before.

`O=C(O)CCN1C(=O)/C(=C\c2ccc(OCc3ccccc3)c(OCc3ccccc3)c2)SC1=S` returned a concentration for half-maximal inhibition (IC50) of 5.3 µM. The figure for `O=C1NC(=S)S/C1=C/c1cccc(Oc2cc(Cl)cc(Cl)c2)c1` is 2.5 µM. `O=C1NC(=O)/C(=C\c2cccc(Oc3ccc(Cl)cc3)c2)S1`: the 50% inhibitory concentration (IC50) was above 22 µM. Under `O=C1NC(=O)/C(=C\c2cccc(Oc3ccc(Cl)c(Cl)c3)c2)S1` stands 10 µM.

`O=C1NC(=O)/C(=C\c2cccc(Oc3cc(Cl)cc(Cl)c3)c2)S1` had a concentration for half-maximal inhibition (IC50) of 9.2 µM. In turn, `O=C1/C(=C\c2ccc(OCc3ccccc3)c(OCc3ccccc3)c2)SC(=S)N1CCc1ccccc1` registered an IC50 above 67 µM.

For `CC(C)[C@H](C(=O)O)N1C(=O)/C(=C\c2ccc(OCc3ccccc3)c(OCc3ccccc3)c2)SC1=S`, the half-inhibitory concentration (IC50) worked out at 1.1 µM.

For `O=C(O)CN1C(=O)/C(=C\c2cccc(Oc3ccc(Cl)c(Cl)c3)c2)SC1=S`, it took 11.1 µM to reach half-maximal inhibition (IC50). `O=C1NC(=O)/C(=C\c2cccc(Oc3ccc(Cl)cc3)c2)N1` yielded a half-maximal inhibitory concentration (IC50) above 67 µM. In the case of `O=C1NC(=O)/C(=C\c2cccc(Oc3cc(Cl)cc(Cl)c3)c2)N1`, the IC50 is above 67 µM. The figure for `CC(C)(C)c1ccc(Oc2cccc(/C=C3/NC(=O)NC3=O)c2)cc1` is above 67 µM; for `CN1C(=O)NC(=O)/C1=C\c1cccc(Oc2ccc(Cl)cc2)c1` it is above 22 µM; for `O=C(O)[C@@H](Cc1ccccc1)N1C(=O)/C(=C\c2ccc(OCc3ccccc3)c(OCc3ccccc3)c2)SC1=S` it is 1.3 µM. `O=C(O)C(c1ccccc1)N1C(=O)/C(=C\c2cccc(Oc3ccc(Cl)c(Cl)c3)c2)SC1=S` (stereo unspecified): the IC50 was 1.3 µM.

On to `O=C(O)[C@@H](Cc1ccccc1)N1C(=O)/C(=C\c2cccc(Oc3ccc(Cl)c(Cl)c3)c2)SC1=S`, for which half-maximal inhibition (IC50) required 1.6 µM.

As to `O=C(O)C(c1ccccc1)N1C(=O)/C(=C\c2ccc(OCc3ccccc3)c(OCc3ccccc3)c2)SC1=S` (stereo unspecified), half-maximal inhibition (IC50) required 0.9 µM.

Regarding `COc1cc(/C=C2/SC(=S)NC2=O)ccc1OCc1ccc(Cl)cc1`, half-maximal inhibition (IC50) required 3.5 µM.

Turning to `COc1ccc(Oc2cccc(/C=C3/SC(=S)NC3=O)c2)cc1`, the concentration for half-maximal inhibition (IC50) worked out at 16.2 µM. Take `CC(C)[C@H](C(=O)O)N1C(=O)/C(=C\c2cccc(Oc3ccc(Cl)c(Cl)c3)c2)SC1=S`: the IC50 was found to be 1.8 µM. For `O=C1NC(=S)S/C1=C/c1cccc(Oc2ccc(Cl)c(Cl)c2)c1`, inhibition was half-maximal at 3.2 µM (IC50). Turning to `O=C1NC(=S)S/C1=C/c1cccc(Oc2ccc(C(F)(F)F)cc2)c1`, half-maximal inhibition (IC50) required 5.3 µM. In turn, `O=C(O)CN1C(=O)/C(=C\c2ccc(OCc3ccccc3)c(OCc3ccccc3)c2)SC1=S` yielded a 50% inhibitory concentration (IC50) of 6.7 µM. The molecule `O=C1/C(=C\c2ccc(OCc3ccccc3)c(OCc3ccccc3)c2)SC(=S)N1c1ccccc1` registered a 50% inhibitory concentration (IC50) above 67 µM.

Turning to `CC(C)(C)c1ccc(Oc2cccc(/C=C3/SC(=O)NC3=O)c2)cc1`, the midpoint of inhibition, the IC50, lay at 6.8 µM. In other words, the single-digit micromolar range. For `CN1C(=O)/C(=C\c2ccc(OCc3ccccc3)c(OCc3ccccc3)c2)SC1=S`, the half-maximal inhibitory concentration (IC50) was above 67 µM. The figure for `CCN1C(=O)/C(=C\c2ccc(OCc3ccccc3)c(OCc3ccccc3)c2)SC1=S` is above 67 µM.
